The source of these data is paper PMC2826162 (Expert opinion on drug metabolism & toxicology, 2010).

Read-outs that look alike come from different tables or passages of the source. Some results are limits rather than exact numbers.

One data set has as its system CYP3A4. To be noted: cited from earlier work.
In data set [1] the target is T1, C334ACYP101 (Pseudomonas putida, UniProt P00183, C335A). As to the kind of experiment: biochemical. Type of data set: binding.
Data set [2] concerns the target T1, C334ACYP101. As to the kind of experiment: biochemical. Format: binding. The source holds these as a separate data set.
Data set [3] has as its system CYP2C9. To be noted: cited from earlier work.
For data set [4], the system named is CYP2C9. The conditions noted are these: cited from earlier work. The source holds these as a separate data set.
The target in data set [5] is T2, CYP2B4 (Oryctolagus cuniculus, UniProt P00178). To be noted: pH 7.4.
T2 sequence (P00178 whole entry): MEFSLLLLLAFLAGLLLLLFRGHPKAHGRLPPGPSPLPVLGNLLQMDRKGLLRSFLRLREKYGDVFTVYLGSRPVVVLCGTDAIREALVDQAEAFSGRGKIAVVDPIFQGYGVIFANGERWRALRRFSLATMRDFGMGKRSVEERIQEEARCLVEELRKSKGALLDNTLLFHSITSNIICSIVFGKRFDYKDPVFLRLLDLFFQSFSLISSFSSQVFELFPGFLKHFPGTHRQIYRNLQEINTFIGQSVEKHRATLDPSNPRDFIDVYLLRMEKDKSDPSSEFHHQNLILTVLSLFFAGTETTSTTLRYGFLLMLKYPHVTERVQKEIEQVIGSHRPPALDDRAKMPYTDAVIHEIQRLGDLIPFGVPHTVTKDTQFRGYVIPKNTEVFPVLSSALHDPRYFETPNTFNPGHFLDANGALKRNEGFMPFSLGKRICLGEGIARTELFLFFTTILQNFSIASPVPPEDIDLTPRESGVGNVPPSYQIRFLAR
Data set [6] deals with CYP2B4. To be noted: cited from earlier work.
The target of data set [7] is T2, CYP2B4. To be noted: cited from earlier work.
The target of data set [8] is T2, CYP2B4.
The target in data set [9] is T1, C334ACYP101. Format: binding. To be noted: for K4 apparent equilibrium constant: product (P) binding to ES; for K4 apparent equilibrium constant / K2 apparent equilibrium constant: pH 7.4, 24°C; for K2 apparent equilibrium constant: product binding to E; for K1K4: product of constants, ESP formed via ES.
Data set [10] concerns CYPC21 (steroid C-21 hydroxylase of bovine adrenocortical microsomes). To be noted: low spin to five coordinated high spin; cited from earlier work.
The next data set concerns CYP73As. To be noted: cinnamate hydroxylation; cited from earlier work.

T1 sequence (P00183 whole entry C335A): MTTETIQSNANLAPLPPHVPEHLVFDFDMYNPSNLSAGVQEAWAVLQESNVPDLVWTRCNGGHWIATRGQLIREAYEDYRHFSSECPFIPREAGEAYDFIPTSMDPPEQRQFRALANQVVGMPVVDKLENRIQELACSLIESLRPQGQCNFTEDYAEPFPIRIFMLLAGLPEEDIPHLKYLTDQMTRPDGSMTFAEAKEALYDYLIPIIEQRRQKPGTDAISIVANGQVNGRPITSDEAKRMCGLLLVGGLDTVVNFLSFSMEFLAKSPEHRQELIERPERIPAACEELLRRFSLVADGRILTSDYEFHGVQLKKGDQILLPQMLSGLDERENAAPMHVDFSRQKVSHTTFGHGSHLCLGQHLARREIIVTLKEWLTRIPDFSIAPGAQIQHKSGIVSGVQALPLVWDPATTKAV

`COc1cc2c(c3oc(=O)c4c(c13)CCC4=O)[C@@H]1C=CO[C@@H]1O2` [aflatoxin B1]: the “effect on metabolism of α-NF by CYP3A4” value with CYP3A4 is listed as “has no effect”.

As to `O=C1C2CC3CC(C2)CC1C3` [2 Adone, 2-Adamantanone], the Kd on C334ACYP101 [1] was determined as 2.9 ± 0.2 µM; on C334ACYP101 [2] (KD^APP Transient, C334ACYP101, 10-13°C jump, 0.05 M K-PO4 buffer + 0.1 M KCl), 6 ± 2 µM.

Take `Nc1ccc(S(=O)(=O)c2ccc(N)cc2)cc1` [dapsone]: the “Type I spectral change in the CYP2C9” value in the data set on CYP2C9 [3] (static spectroscopy) is reported as “does not elicit”. Moreover, in the data set on CYP2C9 [4], the “effect on coupling efficiency of flurbiprofen hydroxylation” value is “enhanced” and the “effect on flurbiprofen hydroxylation” value is listed as “stimulating”.

The molecule `C[C@H](Cc1ccccc1)NCc1ccccc1` [DesBNZ, desmethylbenzphetamine] showed a Kd at CYP2B4 [5] of 701 ± 150 µM. In addition, the “strength of hetero atom binding to Site II (L6)” value in the data set on CYP2B4 [6] is on record as “as strongly as water”. The “time of Site II re-ligation to form the final Type II complex (slow phase)” value on CYP2B4 [7] is reported as not above 20 milliseconds. On CYP2B4 [8], the “binding of product formed in situ” value was “remains bound”.

Consider `CC1(C)[C@H]2CC(=O)[C@]1(C)C[C@H]2O` [5exo OH Camphor, 5-exo-OH camphor], for which the “K4 apparent equilibrium constant” value was “.012 ± .001 µM⁻¹” at C334ACYP101 [9] (OHcam 38 uM), “.0078 ± .0005 µM⁻¹” on C334ACYP101 [9] (OHcam 66 uM), “.0063 ± .0004 µM⁻¹” on C334ACYP101 [9] (OHcam 100 uM) and “.0039 ± .0003 µM⁻¹” at C334ACYP101 [9] (OHcam 133 uM). Further, the “K2 apparent equilibrium constant” value is “.039 ± .002 µM⁻¹” on C334ACYP101 [9] (OHcam 38 uM), “.030 ± .004 µM⁻¹” at C334ACYP101 [9] (OHcam 66 uM), “.034 ± .002 µM⁻¹” at C334ACYP101 [9] (OHcam 100 uM) and “.034 ± .002 µM⁻¹” at C334ACYP101 [9] (OHcam 133 uM). For the same molecule, the K1K4 result on C334ACYP101 [9] (OHcam 38 uM) is “.0080”; at C334ACYP101 [9] (OHcam 66 uM), “.0049”; on C334ACYP101 [9] (OHcam 100 uM), “.0043”; at C334ACYP101 [9] (OHcam 133 uM), “.0024”.

Turning to `CC(C(=O)O)c1ccc(-c2ccccc2)c(F)c1` (stereo not drawn) [Flurbiprofen, flurbiprofen], the “Type I spectral change in the CYP2C9” value with CYP2C9 [3] is on record as “elicits”.

Consider `C[C@]12CCC(=O)C=C1CC[C@@H]1[C@@H]2CC[C@]2(C)C(=O)CC[C@@H]12` [androstenedione], for which, in data set [10], the “Type I spectral change” value was “elicited”.

Consider `O=C(O)/C=C/c1ccc(O)cc1` [coumerate], for which the “product inhibition of substrate hydroxylation” value with CYP73As is listed as “not observable”.

With `Nc1ccc(S(=O)(=O)c2ccc(NO)cc2)cc1` [N-hydroxydapsone], in the data set on CYP2C9 [4], the “effect on coupling efficiency of flurbiprofen hydroxylation” value is listed as “enhanced” and the “effect on flurbiprofen hydroxylation” value is reported as “stimulating”.

In the case of `CC12CCC(CC1=O)C2(C)C` (stereo not drawn) [Cam, Camphor], the “peak to trough ratio of Type I difference spectrum” value in the data set on CYP101 is approximately 0.87. Besides, the Kd on C334ACYP101 [1] is 4.8 ± 0.8 µM; at C334ACYP101 [2] (KD^APP Kinetic), 6.2 ± 0.9 µM; at C334ACYP101 [2] (KD^APP Transient), 5 ± 0.5 µM.

Turning to `C[C@]12CC[C@H]3[C@@H](CCC4=CC(=O)CC[C@@]43C)[C@@H]1CC[C@@H]2O` [testosterone], the “effect on metabolism of midazolum by CYP3A4” value with CYP3A4 was “inhibits”.

Take `O=c1cc(-c2ccccc2)oc2c1ccc1ccccc12` [α-NF, α-naphthoflavone]: the “effect on metabolism of aflatoxin B1 by CYP3A4” value with CYP3A4 is “activates”.
